In patent US20030228583A1, “Biomarkers of liver response” (priority 2001, published 2003):

Tested on: Liver Response-Associated Features (LRFs) in serum/plasma (blood)
Assay: Proteome analysis (2D electrophoresis, Reference Protocol) of depleted serum/plasma of drug-treated vs control animals: relative abundance of LRFs
Description: Samples from animals treated with various drugs at various timepoints and various dose levels can be collected, prepared, and analysed as described herein. […] Using the following procedure, proteins in liver tissue and serum/plasma from 5 control animals and 5 animals having liver response induced through drug treatment were separated by isoelectric focusing followed by SDS-PAGE and analyzed. Samples were taken and analyzed at three different time points designated “early”, “full manifestation” and “late”. Parts 6.1.1 to 6.1.9 (inclusive) of the procedure set forth below are hereby designated as the “Reference Protocol”.
Approximately 200 μl venous blood was collected at the time of necropsy in serum seperation tubes and serum obtained by centrifugation for 3 minutes at 11,000 rpm using a Biofuge A centrifuge. 100 μl of the resulting serum was added to 15 μl protease inhibitor, vortexed and frozen at −80° C.
A protein assay (Pierce (Rockford, Ill.) BCA Cat #23225) was performed on each serum/plasma sample as received. Prior to protein separation, each sample was processed for selective depletion of certain proteins, in order to enhance and simplify protein separation and facilitate analysis by removing proteins that may interfere with or limit analysis of proteins of interest. See International Patent Application No. PCT/GB99/01742, filed Jun. 1, 1999, which is incorporated by reference in its entirety, with particular reference to pages 3 and 6.
This was done by circulating the following solutions sequentially through the columns: (1) Dulbecco's Phosphate Buffered Saline (Gibco BRL Cat. No. 14190-094); (2) concentrated antibody solution; (3) 200 mM sodium carbonate buffer, pH 8.35; (4) cross-linking solution (200 mM sodium carbonate buffer, pH 8.35, 20 mM dimethylpimelimidate); and (5) 500 mM ethanolamine, 500 mM NaCl. A third (un-derivatised) protein G Hi-Trap column was then attached to the lower end of the tandem column assembly.
The chromatographic procedure was automated using an Akta Fast Protein Liquid Chromatography (FPLC) System such that a series of up to seven runs could be performed sequentially. […] Fractions (typically 3 ml per tube) were collected of unbound material (“Flowthrough fractions”) that eluted through the column during column loading and washing stages and of bound proteins (“Bound/Eluted fractions”) that were eluted by step elution with Immunopure Gentle Ag/Ab Elution Buffer (Pierce Cat. No. 21013). The eluate containing unbound material was collected in fractions which were pooled, desalted/concentrated by centrifugal ultrafiltration and stored to await further analysis by 2D PAGE.
A volume of depleted serum/plasma containing approximately 300 μg of total protein was aliquoted and an equal volume of 10% (w/v) SDS (Fluka 71729), 2.3% (w/v) dithiothreitol (BDH 443852A) was added. The sample was heated at 95° C. for 5 mins, and then allowed to cool to 20° C . 125 μl of the following buffer was then added to the sample:
This mixture was vortexed, and centrifuged at 13000 rpm for 5 mins at 15° C., and the supernatant was analyzed by isoelectric focusing.
Isoelectric focusing (IEF), was performed using the Immobiline® DryStrip Kit (Pharmacia BioTech), following the procedure described in the manufacturer's instructions, see Instructions for Immobilineg DryStrip Kit, Pharmacia, #18-1038-63, Edition AB (incorporated herein by reference in its entirety). Immobilized pH Gradient (IPG) strips (18 cm, pH 3-10 non-linear strips; Pharmacia Cat. #17-1235-01) were rehydrated overnight at 20° C. in a solution of 8M urea, 2% (w/v) CHAPS, 10 mM DTT, 2% (v/v) Resolytes 3.5-10, as described in the Immobiline DryStrip Users Manual. For IEF, 50 μl of supernatant (prepared as above) was loaded onto a strip, with the cup-loading units being placed at the basic end of the strip.

SMILES: CCC1(c2ccccc2)C(=O)NC(=O)NC1=O [phenobarbital]
- Fold Change LRF-235 (Early, P 0.0075): 8.26 fold
- Fold Change LRF-223 (Early, P 0.0117): 1.34 fold
- Fold Change LRF-158 (Early, P 0.0119): −1.33 fold
- Fold Change LRF-217 (Early, P 0.0122): 2.16 fold
- Fold Change LRF-182 (Early, P 0.0178): −2.81 fold
- Fold Change LRF-179 (Early, P 0.0212): −1.37 fold
- Fold Change LRF-224 (Early, P 0.0216): 1.30 fold
- Fold Change LRF-369 (Late, P 0.0097): 2.53 fold
- Fold Change LRF-371 (Late, P 0.0109): 3.02 fold
- Fold Change LRF-257 (Middle, P 0.0122): −1.42 fold
- Fold Change LRF-259 (Middle, P 0.0212): −1.34 fold
- Fold Change LRF-294 (Middle, P 0.0216): 1.57 fold
